Measured values from US9980943B2, “Methods of treating muscular dystrophy” (BOARD OF REGENTS OF THE NEVADA SYSTEM OF HIGHER EDUCATION, …, priority 2013, dated 2018).

Tests used:
Format in all cases: cell-based, mouse
[1] = test system: α7 integrin (LacZ reporter in α7βgal+/− myoblasts); assay: Myoblast α7+/LacZ integrin FDG assay (Burkin assay in myoblasts, 96-well); details: α7+/LacZ myoblasts, 96-well
[2] = test system: α7 integrin (LacZ reporter in α7+/LacZ myotubes); assay: Myotube α7 integrin FDG assay (Burkin assay in myotubes, 96-well); details: myotubes
[3] = test system: β-galactosidase in CMV-LacZ C2C12 myoblasts; assay: CMV-LacZ secondary screen in C2C12 myoblasts (β-Gal stabilizing assay); details: CMV-LacZ C2C12 myoblasts
How it was run: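 C2C12 myoblasts stably carrying a linearized CMV-driven LacZ construct, clone chosen by β-gal level in the myoblast FDG assay. Compounds tested in 96-well dose-response at 0.5, 1, 5, 10, 20 and 40 μM, N=2 replicates per point, to detect β-gal stabilization.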

[4] = test system: β-galactosidase in CMV-LacZ C2C12 myotubes; assay: CMV-LacZ secondary screen in C2C12 myotubes (β-Gal stabilizing assay); details: C2C12 CMV-LacZ myotubes, fold relative to DMSO
How it was run: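 β-gal stabilization was measured in C2C12 myoblasts or myotubes stably transfected with a CMV-driven LacZ construct, using the FDG β-gal assay. Compounds were tested in dose-response at 0.5, 1, 5, 10, 20 and 40 μM, with two replicates per point.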

With `Cc1cccc(Cn2cnc3c(nnn3Cc3ccc(Cl)cc3)c2=O)c1` [MLS000092785-01] the “Burkin Assay in Myoblasts, signal relative to DMSO” value ([1]; 0.5 uM) was 0.9544, the “Burkin Assay in Myoblasts, signal relative to DMSO” value ([1]; 1 uM) was 1.035 and the “Burkin Assay in Myoblasts, signal relative to DMSO” value ([1]; 5 uM) was 1.1703. The “Burkin Assay in Myoblasts, signal relative to DMSO” value ([1]; 10 uM) was 0.9343, the “Burkin Assay in Myoblasts, signal relative to DMSO” value ([1]; 20 uM) was 0.7833 and the “Burkin Assay in Myoblasts, signal relative to DMSO” value ([1]; 40 uM) was 0.6509. For the same molecule, the “Burkin Assay in Myotubes, α7 integrin LacZ reporter signal relative to DMSO” value ([2]; 0.5 uM) was 1.027, the “Burkin Assay in Myotubes, α7 integrin LacZ reporter signal relative to DMSO” value ([2]; 1 uM) was 0.9662 and the “Burkin Assay in Myotubes, α7 integrin LacZ reporter signal relative to DMSO” value ([2]; 5 uM) was 1.02. The “Burkin Assay in Myotubes, α7 integrin LacZ reporter signal relative to DMSO” value ([2]; 10 uM) was 0.8586, the “Burkin Assay in Myotubes, α7 integrin LacZ reporter signal relative to DMSO” value ([2]; 20 uM) was 0.8293 and the “Burkin Assay in Myotubes, α7 integrin LacZ reporter signal relative to DMSO” value ([2]; 40 uM) was 0.8225. For the same molecule, the “CMV-LACZ in Myoblasts (β-galactosidase activity relative to DMSO)” value ([3]; 0.5 uM) was 0.8600, the “CMV-LACZ in Myoblasts (β-galactosidase activity relative to DMSO)” value ([3]; 1 uM) was 1.1653 and the “CMV-LACZ in Myoblasts (β-galactosidase activity relative to DMSO)” value ([3]; 5 uM) was 0.9882. The “CMV-LACZ in Myoblasts (β-galactosidase activity relative to DMSO)” value ([3]; 10 uM) was 0.7351, the “CMV-LACZ in Myoblasts (β-galactosidase activity relative to DMSO)” value ([3]; 20 uM) was 1.1004 and the “CMV-LACZ in Myoblasts (β-galactosidase activity relative to DMSO)” value ([3]; 40 uM) was 0.3235. The “CMV-LACZ in Myotubes, signal relative to DMSO” value ([4]; 0.5 uM) was 0.9105, the “CMV-LACZ in Myotubes, signal relative to DMSO” value ([4]; 1 uM) was 1.0143 and the “CMV-LACZ in Myotubes, signal relative to DMSO” value ([4]; 5 uM) was 1.0185. For the same molecule, the “CMV-LACZ in Myotubes, signal relative to DMSO” value ([4]; 10 uM) was 1.0738, the “CMV-LACZ in Myotubes, signal relative to DMSO” value ([4]; 20 uM) was 1.0400 and the “CMV-LACZ in Myotubes, signal relative to DMSO” value ([4]; 40 uM) was 1.0500.

With `N#Cc1ccc(Sc2nc3ccccc3[nH]2)cc1C#N` [MLS000110418-01] the “Burkin Assay in Myoblasts, signal relative to DMSO” value ([1]; 0.5 uM) was 1.3095, the “Burkin Assay in Myoblasts, signal relative to DMSO” value ([1]; 1 uM) was 1.079 and the “Burkin Assay in Myoblasts, signal relative to DMSO” value ([1]; 5 uM) was 1.249. The “Burkin Assay in Myoblasts, signal relative to DMSO” value ([1]; 10 uM) was 1.12, the “Burkin Assay in Myoblasts, signal relative to DMSO” value ([1]; 20 uM) was 1.004 and the “Burkin Assay in Myoblasts, signal relative to DMSO” value ([1]; 40 uM) was 0.8889. For the same molecule, the “Burkin Assay in Myotubes, α7 integrin LacZ reporter signal relative to DMSO” value ([2]; 0.5 uM) was 1.073, the “Burkin Assay in Myotubes, α7 integrin LacZ reporter signal relative to DMSO” value ([2]; 1 uM) was 1.0975 and the “Burkin Assay in Myotubes, α7 integrin LacZ reporter signal relative to DMSO” value ([2]; 5 uM) was 1.017. For the same molecule, the “Burkin Assay in Myotubes, α7 integrin LacZ reporter signal relative to DMSO” value ([2]; 10 uM) was 0.943, the “Burkin Assay in Myotubes, α7 integrin LacZ reporter signal relative to DMSO” value ([2]; 20 uM) was 0.9939 and the “Burkin Assay in Myotubes, α7 integrin LacZ reporter signal relative to DMSO” value ([2]; 40 uM) was 0.8855. The “CMV-LACZ in Myoblasts (β-galactosidase activity relative to DMSO)” value ([3]; 0.5 uM) was 0.8871, the “CMV-LACZ in Myoblasts (β-galactosidase activity relative to DMSO)” value ([3]; 1 uM) was 0.9989 and the “CMV-LACZ in Myoblasts (β-galactosidase activity relative to DMSO)” value ([3]; 5 uM) was 1.0913. For the same molecule, the “CMV-LACZ in Myoblasts (β-galactosidase activity relative to DMSO)” value ([3]; 10 uM) was 0.9455, the “CMV-LACZ in Myoblasts (β-galactosidase activity relative to DMSO)” value ([3]; 20 uM) was 0.8926 and the “CMV-LACZ in Myoblasts (β-galactosidase activity relative to DMSO)” value ([3]; 40 uM) was 0.7141. The “CMV-LACZ in Myotubes, signal relative to DMSO” value ([4]; 0.5 uM) was 1.0333, the “CMV-LACZ in Myotubes, signal relative to DMSO” value ([4]; 1 uM) was 0.9000 and the “CMV-LACZ in Myotubes, signal relative to DMSO” value ([4]; 5 uM) was 0.9617. The “CMV-LACZ in Myotubes, signal relative to DMSO” value ([4]; 10 uM) was 0.9599, the “CMV-LACZ in Myotubes, signal relative to DMSO” value ([4]; 20 uM) was 1.0459 and the “CMV-LACZ in Myotubes, signal relative to DMSO” value ([4]; 40 uM) was 1.3647.
